In ChEMBL document CHEMBL4831542, “Design, Synthesis, and Biological Evaluation of Icaritin Derivatives as Novel Putative DEPTOR Inhibitors for Multiple Myeloma Treatment” (J Med Chem, 2021):
Blank lines part the entries; values can stand above or below the compound they belong to. Active and inactive are the calls of the source. The rule behind the calls is not given here.

Experiments:
RPMI-8226 [1] = assay: cells; settings: Homo sapiens, RPMI-8226, 72 h
Description: Antiproliferative activity against human RPMI-8226 cells assessed as inhibition of cell proliferation incubated for 72 hrs by CCK8 assay

RPMI-8226 [2] = assay: Antiproliferative activity against human RPMI8226 cells assessed as inhibition of cell proliferation at 125 uM incubated for 72 hrs by CCK8 assay; format: functional
RPMI-8226 [3] = assay: Antiproliferative activity against human RPMI8226 cells assessed as inhibition of cell proliferation at 250 uM incubated for 72 hrs by CCK8 assay; format: functional
RPMI-8226 [4] = assay: Induction of apoptosis in human RPMI8226 cells assessed as necrotic cells at 2 uM measured after 36 hrs by Annexin V-FITC based flow cytometry (reference value: 0.03%); format: functional
[5] = Toxicity in BALB/c mouse xenografted with human RPMI8226 cells assessed as change in body weight at 100 to 200 mg/kg, po once a day for 3 weeks; format: organism-based, RPMI-8226; settings: in vivo, 504 h, dose 100-200 mg/kg
MCF7 = assay: cells; settings: Homo sapiens, MCF7, 72 h
Description: Antiproliferative activity against human MCF7 cells assessed as inhibition of cell proliferation incubated for 72 hrs by CCK8 assay

RPMI-8226 [6] = assay: Induction of apoptosis in human RPMI8226 cells assessed as late apoptotic cells at 2 uM measured after 36 hrs by Annexin V-FITC based flow cytometry (reference value: 0.81%); format: functional
RPMI-8226 [7] = assay: Cell cycle arrest in human RPMI8226 cells assessed as accumulation of cells at S phase at 2 uM measured after 36 hrs by flow cytometry (reference value: 50.02%); format: functional
RPMI-8226 [8] = assay: Cell cycle arrest in human RPMI8226 cells assessed as accumulation of cells at G1 phase at 1 uM measured after 36 hrs by flow cytometry (reference value: 22.95%); format: functional
RPMI-8226 [9] = assay: Induction of apoptosis in human RPMI8226 cells assessed as viable cells at 2 uM measured after 36 hrs by Annexin V-FITC based flow cytometry (reference value: 91.68%); format: functional; settings: read-out: Activity
RPMI-8226 [10] = assay: Antitumor activity against human RPMI8226 cells xenografted in BALB/c mouse assessed as reduction in tumor weight at 100 to 200 mg/kg, po once a day for 3 weeks; format: functional, organism-based; settings: dose 100-200 mg/kg
RPMI-8226 [11] = assay: Cell cycle arrest in human RPMI8226 cells assessed as accumulation of cells at G2 phase at 1 uM measured after 36 hrs by flow cytometry (reference value: 27.03%); format: functional
RPMI-8226 [12] = assay: Induction of apoptosis in human RPMI8226 cells assessed as necrotic cells at 4 uM measured after 36 hrs by Annexin V-FITC based flow cytometry (reference value: 0.03%); format: functional
RPMI-8226 [13] = assay: Induction of apoptosis in human RPMI8226 cells assessed as late apoptotic cells at 1 uM measured after 36 hrs by Annexin V-FITC based flow cytometry (reference value: 0.81%); format: functional
RPMI-8226 [14] = assay: Reduction in DEPTOR protein expression in human RPMI8226 cells incubated for 24 hrs by Western blot analysis; format: functional, cell-based; settings: dose 1-4 µM
HepG2 = assay: cells; settings: Homo sapiens, HepG2, 72 h
Description: Antiproliferative activity against human HepG2 cells assessed as inhibition of cell proliferation incubated for 72 hrs by CCK8 assay

DLD-1 = assay: cells; settings: Homo sapiens, DLD-1, 72 h
Description: Antiproliferative activity against human DLD1 cells assessed as inhibition of cell proliferation incubated for 72 hrs by CCK8 assay

RPMI-8226 [15] = assay: Reduction in DEPTOR mRNA expression in human RPMI8226 cells by quantitative PCR analysis relative to control; format: functional, cell-based; settings: dose 1-4 µM
RPMI-8226 [16] = assay: Induction of apoptosis in human RPMI8226 cells assessed as necrotic cells at 1 uM measured after 36 hrs by Annexin V-FITC based flow cytometry (reference value: 0.03%); format: functional
RPMI-8226 [17] = assay: Cell cycle arrest in human RPMI8226 cells assessed as accumulation of cells at G1 phase at 4 uM measured after 36 hrs by flow cytometry (reference value: 22.95%); format: functional
RPMI-8226 [18] = assay: Induction of apoptosis in human RPMI8226 cells assessed as viable cells at 1 uM measured after 36 hrs by Annexin V-FITC based flow cytometry (reference value: 91.68%); format: functional; settings: read-out: Activity
NCI-H460 = assay: cells; settings: Homo sapiens, NCI-H460, 72 h
Description: Antiproliferative activity against human NCI-H460 cells assessed as inhibition of cell proliferation incubated for 72 hrs by CCK8 assay

RPMI-8226 [19] = assay: Induction of apoptosis in human RPMI8226 cells assessed as early apoptotic cells at 2 uM measured after 36 hrs by Annexin V-FITC based flow cytometry (reference value: 7.48%); format: functional
RPMI-8226 [20] = assay: Induction of apoptosis in human RPMI8226 cells assessed as viable cells at 4 uM measured after 36 hrs by Annexin V-FITC based flow cytometry (reference value: 91.68%); format: functional; settings: read-out: Activity
RPMI-8226 [21] = assay: Induction of apoptosis in human RPMI8226 cells assessed as early apoptotic cells at 4 uM measured after 36 hrs by Annexin V-FITC based flow cytometry (reference value: 7.48%); format: functional
SiHa = assay: cells; settings: Homo sapiens, 72 h
Description: Antiproliferative activity against human SiHa cells assessed as inhibition of cell proliferation incubated for 72 hrs by CCK8 assay

RPMI-8226 [22] = assay: Cell cycle arrest in human RPMI8226 cells assessed as accumulation of cells at S phase at 1 uM measured after 36 hrs by flow cytometry (reference value: 50.02%); format: functional
RPMI-8226 [23] = assay: Antitumor activity against human RPMI8226 cells xenografted in BALB/c mouse assessed as tumor growth inhibition at 100 mg/kg, po once a day for 3 weeks relative to control; format: functional; settings: RPMI-8226, po, 504 h, read-out: TGI
RPMI-8226 [24] = assay: Cell cycle arrest in human RPMI8226 cells assessed as accumulation of cells at G1 phase at 2 uM measured after 36 hrs by flow cytometry (reference value: 22.95%); format: functional
RPMI-8226 [25] = assay: Induction of apoptosis in human RPMI8226 cells assessed as early apoptotic cells at 1 uM measured after 36 hrs by Annexin V-FITC based flow cytometry (reference value: 7.48%); format: functional
MGC-803 = assay: cells; settings: Homo sapiens, MGC-803, 72 h
Description: Antiproliferative activity against human MGC-803 cells assessed as inhibition of cell proliferation incubated for 72 hrs by CCK8 assay

RPMI-8226 [26] = assay: Cell cycle arrest in human RPMI8226 cells assessed as accumulation of cells at G2 phase at 2 uM measured after 36 hrs by flow cytometry (reference value: 27.03%); format: functional
U2OS = assay: cells; settings: Homo sapiens, 72 h
Description: Antiproliferative activity against human U2OS cells assessed as inhibition of cell proliferation incubated for 72 hrs by CCK8 assay

RPMI-8226 [27] = assay: Cell cycle arrest in human RPMI8226 cells assessed as accumulation of cells at S phase at 4 uM measured after 36 hrs by flow cytometry (reference value: 50.02%); format: functional
U-266 = assay: cells; settings: Homo sapiens, U-266, 72 h
Description: Antiproliferative activity against human U266 cells assessed as inhibition of cell proliferation incubated for 72 hrs by CCK8 assay

RPMI-8226 [28] = assay: Antitumor activity against human RPMI8226 cells xenografted in BALB/c mouse assessed as tumor growth inhibition at 200 mg/kg, po once a day for 3 weeks relative to control; format: functional; settings: RPMI-8226, po, 504 h, read-out: TGI
HL-60 = assay: cells; settings: Homo sapiens, HL-60, 72 h
Description: Antiproliferative activity against human HL-60 cells assessed as inhibition of cell proliferation incubated for 72 hrs by CCK8 assay

RPMI-8226 [29] = assay: Induction of apoptosis in human RPMI8226 cells assessed as late apoptotic cells at 4 uM measured after 36 hrs by Annexin V-FITC based flow cytometry (reference value: 0.81%); format: functional
RPMI-8226 [30] = assay: Cell cycle arrest in human RPMI8226 cells assessed as accumulation of cells at G2 phase at 4 uM measured after 36 hrs by flow cytometry (reference value: 27.03%); format: functional
MOLT-4 = assay: cells; settings: Homo sapiens, MOLT-4, 72 h
Description: Antiproliferative activity against human MOLT-4 cells assessed as inhibition of cell proliferation incubated for 72 hrs by CCK8 assay

U-251 = assay: cells; settings: Homo sapiens, U-251, 72 h
Description: Antiproliferative activity against human U251 cells assessed as inhibition of cell proliferation incubated for 72 hrs by CCK8 assay

SMILES: CN1CCC(N2COc3ccc4c(=O)c(O)c(-c5cccc(Cl)c5Cl)oc4c3C2)CC1
IC50 (RPMI-8226 [1]): 4.29 µM

SMILES: COc1ccc(-c2oc3c(CNC(Cc4ccccc4)C(=O)O)c(O)ccc3c(=O)c2O)c(OC)c1 (stereo not given)
inhibition at 125 µM (RPMI-8226 [2]): 30%

SMILES: O=c1c(O)c(-c2cccc(Cl)c2Cl)oc2c(CN3CCOCC3)c(O)ccc12
IC50 (RPMI-8226 [1]): 29.8 µM

SMILES: O=C(O)[C@@H]1CCCN1Cc1c(O)ccc2c(=O)c(O)c(-c3cccc(Cl)c3Cl)oc12
inhibition at 125 µM (RPMI-8226 [2]): 49%

SMILES: COc1ccc(-c2oc3c(CNCC4CCOCC4)c(O)ccc3c(=O)c2O)c(OC)c1
inhibition at 125 µM (RPMI-8226 [2]): 16%

SMILES: COc1ccc(-c2oc3c4c(ccc3c(=O)c2O)OCN(NCc2ccc(Cl)c(Cl)c2)C4)c(OC)c1
inhibition at 125 µM (RPMI-8226 [2]): 36%

SMILES: COc1ccc(-c2oc3c(CN4CCCC4)c(O)ccc3c(=O)c2O)c(OC)c1
inhibition at 250 µM (RPMI-8226 [3]): 53%

SMILES: O=c1c(O)c(-c2ccc(Cl)c(Cl)c2)oc2c3c(ccc12)OCN(Cc1ccncc1)C3
IC50 (RPMI-8226 [1]): 5.9 µM

SMILES: COc1ccc(-c2oc3c(CNCc4cccc(F)c4)c(O)ccc3c(=O)c2O)c(OC)c1
inhibition at 125 µM (RPMI-8226 [2]): 19%

SMILES: O=c1c(O)c(-c2ccc(Cl)c(Cl)c2)oc2c(CN3CCOCC3)c(O)ccc12
IC50 (RPMI-8226 [1]): 4.03 µM

SMILES: COc1ccc(-c2oc3c(CN4CCOCC4)c(O)ccc3c(=O)c2O)c(OC)c1
inhibition at 125 µM (RPMI-8226 [2]): 25%

SMILES: O=c1c(O)c(-c2ccc(Cl)c(Cl)c2)oc2c3c(ccc12)OCN(Cc1cccc(F)c1)C3
Activity (RPMI-8226 [4]): 0.54% | Activity [5]: Non-Toxic | IC50 (MCF7): 8.68 µM | Activity (RPMI-8226 [6]): 16.6% | Activity (RPMI-8226 [7]): 55.5% | Activity (RPMI-8226 [8]): 22.33% | viability at 2 µM (RPMI-8226 [9]): 29.4% | Activity (RPMI-8226 [10]): Active | Activity (RPMI-8226 [11]): 25.91% | Activity (RPMI-8226 [12]): 0.28% | Activity (RPMI-8226 [13]): 9.16% | Activity (RPMI-8226 [14]): Dose-Dependent Effect | IC50 (HepG2): > 10 µM | IC50 (DLD-1): 10 µM | Activity (RPMI-8226 [15]): Dose-Dependent Effect | Activity (RPMI-8226 [16]): 1.55% | Activity (RPMI-8226 [17]): 22.38% | viability at 1 µM (RPMI-8226 [18]): 65% | IC50 (NCI-H460): > 10 µM | Activity (RPMI-8226 [19]): 53.44% | IC50 (RPMI-8226 [1]): 1.09 µM | viability at 4 µM (RPMI-8226 [20]): 13.9% | Activity (RPMI-8226 [21]): 60.59% | IC50 (SiHa): > 10 µM | Activity (RPMI-8226 [22]): 51.75% | inhibition in vivo at 100 mg/kg (RPMI-8226 [23]): 45.4% | Activity (RPMI-8226 [24]): 18.17% | Activity (RPMI-8226 [25]): 24.26% | IC50 (MGC-803): > 10 µM | Activity (RPMI-8226 [26]): 26.33% | IC50 (U2OS): > 10 µM | Activity (RPMI-8226 [27]): 62.51% | IC50 (U-266): 1.11 µM | inhibition in vivo at 200 mg/kg (RPMI-8226 [28]): 61.1% | IC50 (HL-60): 6.6 µM | Activity (RPMI-8226 [29]): 25.18% | Activity (RPMI-8226 [30]): 15.01% | IC50 (MOLT-4): 7.02 µM | IC50 (U-251): > 10 µM

SMILES: CCN(CC)Cc1c(O)ccc2c(=O)c(O)c(-c3ccc(OC)cc3OC)oc12
inhibition at 125 µM (RPMI-8226 [2]): 25%

SMILES: O=c1c(O)c(-c2ccc(Cl)c(Cl)c2)oc2c3c(ccc12)OCN(CC1CCOCC1)C3
IC50 (RPMI-8226 [1]): 4.81 µM

SMILES: O=c1c(O)c(-c2ccncc2)oc2c3c(ccc12)OCN(Cc1ccc(Cl)c(Cl)c1)C3
IC50 (RPMI-8226 [1]): 27.6 µM

Further lines, results first:

IC50 (RPMI-8226 [1]): 20.8 µM
SMILES: COc1ccc(-c2oc3c(CC=C(C)C)c(O)cc(O)c3c(=O)c2O)cc1 [ICARITIN]

IC50 (RPMI-8226 [1]): 66.2 µM
SMILES: COc1ccc(-c2oc3c(CNCC(=O)O)c(O)ccc3c(=O)c2O)c(OC)c1

IC50 (RPMI-8226 [1]): 60.4 µM
SMILES: CCN(CC)Cc1c(O)ccc2c(=O)c(O)c(-c3cccc(Cl)c3Cl)oc12

IC50 (RPMI-8226 [1]): 42.8 µM
SMILES: O=c1c(O)c(-c2cccc(Cl)c2Cl)oc2c(CN3CCCC3)c(O)ccc12

IC50 (RPMI-8226 [1]): 44.8 µM
SMILES: COc1ccc(-c2oc3c4c(ccc3c(=O)c2O)OCN(C2CCN(C)CC2)C4)c(OC)c1

IC50 (RPMI-8226 [1]): 56.6 µM
SMILES: COc1ccc(-c2oc3c(CNCc4ccncc4)c(O)ccc3c(=O)c2O)c(OC)c1

IC50 (RPMI-8226 [1]): 14.9 µM
SMILES: COc1ccc(-c2oc3c(CNCc4ccccc4)c(O)ccc3c(=O)c2O)c(OC)c1
